In patent publication US20220033396A1, “FURTHER HETEROAROMATIC COMPOUNDS HAVING ACTIVITY AGAINST RSV” (priority 2018, published 2022):

Columns and labels:
rgRSV224 virus = assay: microbe, parasite or virus in culture; type: cell-based; settings: human respiratory syncytial virus, 72 h; rgRSV224 virus (MOI=1), HeLa cells, GFP expression three days post-virus exposure; averaged data of several repeat experiments; read-out: RSV HELA EC50
in vitro = settings: human

Row | SMILES | EC50 (rgRSV224 virus) [µM] | CC50 at 3 days (in vitro) [µM]
1 | C[C@@H]1c2ccccc2CCN1C(=O)c1cc(-c2cccnc2)c2nc(-c3ccc(N4CC[C@H](C(N)=O)C4)cc3F)cn2c1 [Compound 17, (3S)-1-(3-Fluoro-4-{6-[(1R)-1-methyl-1,2,3,4-tetrahydroisoquinoline-2-carbonyl]-8-(pyridin-3-yl)imidazo[1,2-a]pyridin-2-yl}phenyl)pyrrolidine-3-carboxamide] | 0.163 | 44.3
2 | C[C@@H]1c2ccccc2CCN1C(=O)c1cc(N(C)C)c2nc(-c3ccc(N4CC[C@H](C(N)=O)C4)cc3F)cn2c1 [Compound 19, (3S)-1-{4-[8-(Dimethylamino)-6-[(1R)-1-methyl-1,2,3,4-tetrahydroisoquinoline-2-carbonyl]imidazo[1,2-a]pyridin-2-yl]-3-fluorophenyl}pyrrolidine-3-carboxylamide] | 0.141 | 43.9
3 | C[C@@H]1c2ccccc2CCN1C(=O)c1cc(N2CCCC2)c2nc(-c3ccc(N4CC[C@H](C(N)=O)C4)cc3F)cn2c1 [Compound 20, (3S)-1-(3-Fluoro-4-{6-[(1R)-1-methyl-1,2,3,4-tetrahydroisoquinoline-2-carbonyl]-8-(pyrrolidin-1-yl)imidazo[1,2-a]pyridin-2-yl}phenyl)pyrrolidine-3-carboxamide] | 0.149 | > 100
4 | Cc1c(-c2ccc(N3CC[C@H](C(N)=O)C3)cc2F)nc2c(C3CC3)cc(C(=O)N3CCc4ccccc4[C@H]3C)cn12 [Compound 21, (3S)-1-(4-{8-Cyclopropyl-3-methyl-6-[(1R)-1-methyl-1,2,3,4-tetrahydroisoquinoline-2-carbonyl]imidazo[1,2-a]pyridin-2-yl}-3-fluorophenyl)pyrrolidine-3-carboxamide] | 0.638 | 35
5 | C[C@@H]1c2ccccc2CCN1C(=O)c1cc(C2CC2)c2nc(-c3ccc(N4CC[C@H](C(N)=O)C4)nc3F)cn2c1 [Compound 22, (3S)-1-(5-{8-Cyclopropyl-6-[(1R)-1-methyl-1,2,3,4-tetrahydroisoquinoline-2-carbonyl]imidazo[1,2-a]pyridin-2-yl}-6-fluoropyridin-2-yl)pyrrolidine-3-carboxamide] | 0.171 | 37.4
6 | C[C@@H]1c2ccccc2CCN1C(=O)c1cc(C2CC2)c2nc(-c3ccc(-n4cc(C(=O)O)cn4)cc3F)cn2c1 [Compound 25, 1-(4-{8-Cyclopropyl-6-[(1R)-1-methyl-1,2,3,4-tetrahydroisoquinoline-2-carbonyl]imidazo[1,2-a]pyridin-2-yl}-3-fluorophenyl)-1H-pyrazole-4-carboxylic Acid] | 0.369 | 51.3
7 | C[C@@H]1c2ccccc2CCN1C(=O)c1cc(C2CC2)c2nc(-c3ccc(-n4cc(C(N)=O)cn4)cc3F)cn2c1 [Compound 26, 1-(4-{8-Cyclopropyl-6-[(1R)-1-methyl-1,2,3,4-tetrahydroisoquinoline-2-carbonyl]imidazo[1,2-a]pyridin-2-yl}-3-fluorophenyl)-1H-pyrazole-4-carboxamide] | 0.202 | 42.7
8 | C[C@@H]1c2ccccc2CCN1C(=O)c1cc(C2CC2)c2nc(-c3ccc(N4CC(O)C4)cc3F)cn2c1 [Compound 27, 1-(4-{8-Cyclopropyl-6-[(1R)-1-methyl-1,2,3,4-tetrahydroisoquinoline-2-carbonyl]imidazo[1,2-a]pyridin-2-yl}-3-fluorophenyl)azetidin-3-ol] | 0.119 | 98.1
9 | C[C@@H]1c2ccccc2CCN1C(=O)c1cc(C2CC2)c2nc(-c3ccc(N4CC(C(=O)NS(C)(=O)=O)C4)cc3F)cn2c1 [Compound 28, 1-(4-{8-Cyclopropyl-6-[(1R)-1-methyl-1,2,3,4-tetrahydroisoquinoline-2-carbonyl]imidazo[1,2-a]pyridin-2-yl}-3-fluorophenyl)-N-methanesulfonylazetidine-3-carboxamide] | 3.11 | > 100
10 | C[C@@H]1c2ccccc2CCN1C(=O)c1cc(C2CC2)c2nc(-c3ccc4c(c3F)C=C(C(=O)O)CO4)cn2c1 [Compound 29, (R)-6-(8-cyclopropyl-6-(1-methyl-1,2,3,4-tetrahydroisoquinoline-2-carbonyl)imidazo[1,2-a]pyridin-2-yl)-5-fluoro-2H-chromene-3-carboxylic Acid] | 0.146 | 49.5
11 | C[C@@H]1c2ccccc2CCN1C(=O)c1cc(C2CC2)c2nc(-c3ccc(NC(=O)N4CC(O)C4)cc3F)cn2c1 [Compound 30, (R)-N-(4-(8-cyclopropyl-6-(1-methyl-1,2,3,4-tetrahydroisoquinoline-2-carbonyl)imidazo[1,2-a]pyridin-2-yl)-3-fluorophenyl)-3-hydroxyazetidine-1-carboxamide] | 0.089 | 43.4
12 | C[C@@H]1c2ccccc2CCN1C(=O)c1cc(C2CC2)c2nc(-c3ccc(/C=C/C(=O)O)cc3F)cn2c1 [Compound 31, (R),(E)-3-(4-(8-cyclopropyl-6-(1-methyl-1,2,3,4-tetrahydroisoquinoline-2-carbonyl)imidazo[1,2-a]pyridin-2-yl)-3-fluorophenyl)acrylic acid] | 0.158 | 49.9
13 | C[C@@H]1c2ccccc2CCN1C(=O)c1cc(C2CC2)c2nc(-c3ccc([C@H]4C[C@@H]4C(=O)O)cc3F)cn2n1 [Compound 32, (1S,2 S)-2-(4-{8-Cyclopropyl-6-[(1R)-1-methyl-1,2,3,4-tetrahydroisoquinoline-2-carbonyl]imidazo[1,2-b]pyridazin-2-yl}-3-fluorophenyl)cyclopropane-1-carboxylic Acid] | 0.01 | 51.5
14 | C[C@@H]1CCCCCN1C(=O)c1cc(C2CC2)c2nc(-c3ccc([C@H]4C[C@@H]4C(=O)O)cc3F)cn2n1 [Compound 33, (1S,2S)-2-(4-{8-Cyclopropyl-6-[(2R)-2-methylazepane-1-carbonyl]imidazo[1,2-b]pyridazin-2-yl}-3-fluorophenyl)cyclopropane-1-carboxylic Acid] | 0.067 | 50.5
15 | CCc1cc(C(=O)N2CCc3ccccc3[C@H]2C)nn2cc(-c3ccc(N4C[C@H](O)[C@@H](O)C4)cc3F)nc12 [Compound 34, (2-(4-((3 S,4 S)-3,4-dihydroxypyrrolidin-1-yl)-2-fluorophenyl)-8-ethylimidazo[1,2-b]pyridazin-6-yl)((R)-1-methyl-3,4-dihydroisoquinolin-2(1H)-yl)methanone] | 0.012 | 24.5
16 | CCc1cc(C(=O)N2CCc3ccccc3[C@H]2C)nn2cc(-c3ccc(N4CC(O)C4)cc3F)nc12 [Compound 35, (R)-(8-ethyl-2-(2-fluoro-4-(3-hydroxyazetidin-1-yl)phenyl)imidazo[1,2-b]pyridazin-6-yl)(1-methyl-3,4-dihydroisoquinolin-2(1H)-yl)methanone] | 0.021 | 16.3
17 | CCc1cc(C(=O)N2CCc3ccccc3[C@H]2C)nn2cc(-c3ccc(/C=C/C(=O)O)cc3F)nc12 [Compound 36, (R,E)-3-(4-(8-ethyl-6-(1-methyl-1,2,3,4-tetrahydroisoquinoline-2-carbonyl)imidazo[1,2-b]pyridazin-2-yl)-3-fluorophenyl)acrylic Acid] | 0.039 | 17.2
18 | CCc1cc(C(=O)N(CC)C(C)C(C)C)nn2cc(-c3ccc(NC(=O)N4CC[C@@H](O)C4)cc3F)nc12 (stereo partly drawn) [Compound 42, N,8-diethyl-2-(2-fluoro-4-((R)-3-hydroxypyrrolidine-1-carboxamido)phenyl)-N-(3-methylbutan-2-yl)imidazo[1,2-b]pyridazine-6-carboxamide] | 5.55 | 46.8
19 | C[C@@H]1c2ccccc2CCN1C(=O)c1cc(-c2cccc(F)c2)c2nc(-c3ccc(NC(=O)N4CC[C@@H](O)C4)cc3F)cn2n1 [Compound 43, (R)-N-(3-fluoro-4-(8-(3-fluorophenyl)-6-((R)-1-methyl-1,2,3,4-tetrahydroisoquinoline-2-carbonyl)imidazo[1,2-b]pyridazin-2-yl)phenyl)-3-hydroxypyrrolidine-1-carboxamide] | 0.022 | > 100
20 | CCc1cc(C(=O)N2CCc3ccccc3[C@H]2C)nn2cc(-c3ccc4c(c3F)C=C(C(N)=O)CO4)nc12 [Compound 45, (R)-6-(8-ethyl-6-(1-methyl-1,2,3,4-tetrahydroisoquinoline-2-carbonyl)imidazo[1,2-b]pyridazin-2-yl)-5-fluoro-2H-chromene-3-carboxamide] | 0.105 | > 100
21 | CCc1cc(C(=O)N2CCc3ccccc3[C@H]2C)nn2cc(-c3ccc4c(c3F)OCC(C(N)=O)=C4)nc12 [Compound 46, (R)-7-(8-ethyl-6-(1-methyl-1,2,3,4-tetrahydroisoquinoline-2-carbonyl)imidazo[1,2-b]pyridazin-2-yl)-8-fluoro-2H-chromene-3-carboxamide] | 0.054 | > 100
22 | C[C@@H]1c2ccccc2CCN1C(=O)c1cn2cc(-c3ccc(NC(=O)N4CC[C@@H](O)C4)cc3F)nc2c(C2CC2)n1 [Compound 47, (R)-N-(4-(8-cyclopropyl-6-((R)-1-methyl-1,2,3,4-tetrahydroisoquinoline-2-carbonyl)imidazo[1,2-a]pyrazin-2-yl)-3-fluorophenyl)-3-hydroxypyrrolidine-1-carboxamide] | 2.77 | > 100
23 | C[C@@H]1c2ccccc2CCN1C(=O)c1cn2cc(-c3ccc(N4C[C@H](O)[C@@H](O)C4)cc3F)nc2c(C2CC2)n1 [Compound 48, (8-cyclopropyl-2-(4-((3 S,4 S)-3,4-dihydroxypyrrolidin-1-yl)-2-fluorophenyl)imidazo[1,2-a]pyrazin-6-yl)((R)-1-methyl-3,4-dihydroisoquinolin-2(1H)-yl)methanone] | 3.77 | 58.8
24 | C[C@@H]1c2ccccc2CCN1C(=O)c1cc(C2CC2)c2cc(-c3ccc(NC(=O)N4CC[C@@H](O)C4)cc3F)cn2n1 [Compound 49, (R)-N-(4-(4-cyclopropyl-2-((R)-1-methyl-1,2,3,4-tetrahydroisoquinoline-2-carbonyl)pyrrolo[1,2-b]pyridazin-6-yl)-3-fluorophenyl)-3-hydroxypyrrolidine-1-carboxamide] | 0.048 | 45.5
